Consider one molecule from US8242160B2, “Inhibitors of ubiquitin E1” (The United States of America, as represented by the …, priority 2005, dated 2012).

One experiment concerns the target T1, Rabbit E1 (Oryctolagus cuniculus, UniProt Q29504).
T1 construct: purchased Calbiochem #6620700
T1 sequence (Q29504 1-1058): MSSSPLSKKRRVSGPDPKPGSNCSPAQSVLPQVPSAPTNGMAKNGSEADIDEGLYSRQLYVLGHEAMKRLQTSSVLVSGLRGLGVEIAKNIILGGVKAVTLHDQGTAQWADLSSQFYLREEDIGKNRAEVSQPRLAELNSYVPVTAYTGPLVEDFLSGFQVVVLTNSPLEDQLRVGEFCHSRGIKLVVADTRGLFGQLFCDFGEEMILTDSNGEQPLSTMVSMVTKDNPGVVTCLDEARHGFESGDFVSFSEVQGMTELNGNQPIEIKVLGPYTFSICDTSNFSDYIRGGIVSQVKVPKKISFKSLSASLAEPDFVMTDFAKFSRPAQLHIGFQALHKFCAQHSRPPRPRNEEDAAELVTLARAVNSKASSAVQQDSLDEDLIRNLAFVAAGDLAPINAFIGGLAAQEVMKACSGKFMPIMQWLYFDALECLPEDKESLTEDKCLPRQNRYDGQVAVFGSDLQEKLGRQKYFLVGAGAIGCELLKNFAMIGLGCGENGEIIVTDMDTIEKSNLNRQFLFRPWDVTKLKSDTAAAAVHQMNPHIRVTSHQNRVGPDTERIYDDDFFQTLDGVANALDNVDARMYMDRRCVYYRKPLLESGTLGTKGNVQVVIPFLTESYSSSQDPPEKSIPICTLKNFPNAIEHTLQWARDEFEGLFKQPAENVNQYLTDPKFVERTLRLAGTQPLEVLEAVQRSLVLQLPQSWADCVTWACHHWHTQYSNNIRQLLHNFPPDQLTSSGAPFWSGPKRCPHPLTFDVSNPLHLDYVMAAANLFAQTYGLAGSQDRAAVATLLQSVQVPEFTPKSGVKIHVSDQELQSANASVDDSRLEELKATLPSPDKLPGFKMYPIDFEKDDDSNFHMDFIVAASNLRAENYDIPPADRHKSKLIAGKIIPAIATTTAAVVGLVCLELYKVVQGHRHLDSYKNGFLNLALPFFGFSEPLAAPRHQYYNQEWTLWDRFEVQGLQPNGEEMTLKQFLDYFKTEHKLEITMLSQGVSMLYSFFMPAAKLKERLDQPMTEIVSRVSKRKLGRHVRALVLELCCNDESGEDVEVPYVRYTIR
Put plainly: E1 only assay: thiolester linkage between 32P-labeled ubiquitin and E1. Particulars: gel-based assay with 32P-labeled ubiquitin; stated after block of E1-ubiquitin thiolester formation (FIG. 1B). In kind it is biochemical. As for the experimental part: Since Mdm2 autoubiquitination depends on the activity of E1 and E2, some of these might act by inhibiting E1. In fact, some did block the formation of thiolester linkages between ^32P-labeled ubiquitin and E1 (FIG. 1B). The compound 4-[4-(5-nitro-furan-2-ylmethylene)-3,5-dioxo-pyrazolidin-1-yl]-benzoic acid methyl acid was active at a concentration of 20-50 μM.
b. “E1 Only” Assay. • 2 μl rabbit E1+12 μl of 1× reaction buffer are mixed together with the test compound followed by addition of 1 μl of ^32P Ub. After incubating for 10 minutes at room temperature, the samples are denatured using loading buffer without reducing agent and subjected to SDS-PAGE under non-reducing conditions to maintain thiol-ester linkages and exposure as above.

In another experiment the target is T2, GST-UbcH5B (Homo sapiens, UniProt P62837).
T2 construct: made in house; host or cells: bacteria
T2 sequence (P62837 whole entry): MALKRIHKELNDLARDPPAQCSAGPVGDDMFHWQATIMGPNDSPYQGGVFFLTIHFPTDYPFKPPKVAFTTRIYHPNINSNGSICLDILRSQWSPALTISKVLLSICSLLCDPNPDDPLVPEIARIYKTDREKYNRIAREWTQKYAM
As to the kind of experiment: E1+E2 assay: formation of E2-ubiquitin complex. The class given is biochemical. The settings on record: E1 preloaded with 32P-labeled ubiquitin, then E2 added with compound. As to the method: One way that the compounds might inactivate E1 is by alkylating or otherwise irreversibly inactivating active site cysteines. Like E1, E2 also uses a cysteine to form thiolester bond with ubiquitin. Inhibitors that directly act on the cysteine of E1 might therefore also affect E2 activity, and thus function in a relatively non-specific manner. […]
c. E1+E2 Assay with Immobilized E2 • 20 pmoles of bacterially-expressed GST-UbcH5B are bound to GS beads for 30 minutes at room temperature. […] This is followed by resolution by SDS-PAGE under non-reducing conditions and exposure as above.

Another experiment concerns Nedd4. Put plainly: In vitro autoubiquitination of HECT E3 Nedd4. The class given is biochemical. As to the method:
It was then evaluated whether 4-[4-(5-nitro-furan-2-ylmethylene)-3,5-dioxo-pyrazolidin-1-yl]-benzoic acid methyl acid blocks autoubiquitination of both RING finger E3s (Mdm2) and HECT E3s (Nedd4) in vitro.
5 pmole per experimental point of bacterially expressed GST-Mdm2 (or GST-Nedd) is coupled to glutathione Sepharose (GS) for 30 minutes at room temperature with tumbling, followed by 3× wash with 50 mM Tris pH 7.5. Following this, 20 μl of 1× buffer is added (40 μl 10× reaction buffer*, 40 μl 10× PCK**, 320 μl dH2O). The test compound in DMSO is then added to the desired concentration with an equal volume of DMSO used as a control. Samples are incubated with shaking for 1 hr at 23° C. To carry out the reaction, a pre-made cocktail of Rabbit E1 (Calbiochem #6620700)/UbCH5B/^32P Ub cocktail (1 μl/0.5 μl/1 μl) is added followed by 15 minutes shaking at 30° C. The reaction is terminated by addition of 8 μl 4× reducing SDS-PAGE loading buffer. After dissociating proteins from the beads at 100° C. for 2 minutes, samples are resolved on 6% PAGE followed by exposure of the dried gel to phosphor screen. Note: ^32P Ub is derived from GST-Ub that has been engineered to include a PKA phosphorylation site. This fusion protein is purified on glutathione Sepharose, phosphorylated, following this, the ^32P Ub ubiquitin is cleaved and purified away from the thrombin.

A further experiment has as its system cyclin E. Put plainly: Degradation of in vitro translated cyclin E in S-100 cytosolic extract. In kind it is biochemical. An excerpt:
Cytosolic extracts from cells (S-100) contain all the components for ubiquitination and proteasomal degradation. To further evaluate 4-[4-(5-nitro-furan-2-ylmethylene)-3,5-dioxo-pyrazolidin-1-yl]-benzoic acid methyl acid, we made use of in vitro translated cyclin E, which is degraded in S-100 in a time-dependent manner (FIG. 3, upper panel, lanes 1-4).

A further experiment relates to IκBα. Put plainly: TNFα-induced IκBα degradation in cells. The class given is cell-based.
The next experiment relates to Mdm2. As to the kind of experiment: Cellular Mdm2 level by immunoblotting. In kind it is cell-based. Particulars: six hours treatment; RPE cells. An excerpt:
FIG. 5A depicts the increase in the levels of Mdm2 and p53 in RPE cells after treatment with the E1 inhibitor 4-[4-(5-nitro-furan-2-ylmethylene)-3,5-dioxo-pyrazolidin-1-yl]-benzoic acid methyl acid.

As to `COC(=O)c1ccc(N2NC(=O)/C(=C/c3ccc([N+](=O)[O-])o3)C2=O)cc1` [E1-41, 4-[4-(5-nitro-furan-2-ylmethylene)-3,5-dioxo-pyrazolidin-1-yl]-benzoic acid methyl acid], the “concentration at which the compound was active” value on Rabbit E1 was 20 to 50 µM. Moreover, at GST-UbcH5B, the “transfer of ubiquitin from E1 to E2 (formation of E2-ubiquitin complex)” value is given as “did not affect transfer of ubiquitin from E1 to E2”. In addition, in the experiment with Nedd4, the “autoubiquitination of Nedd4” value is recorded as “inhibits the autoubiquitination of Nedd4”. The “cyclin E degradation in S-100” value in the experiment on cyclin E (no exogenous E1) is recorded as “block cyclin E degradation”. Also, in the experiment with cyclin E (purified exogenous E1 added to the reaction mixture), the “cyclin E degradation in S-100 after addition of purified exogenous E1” value is recorded as “inhibition of cyclin E degradation was prevented”. In addition, the “TNFα-induced IκBα degradation” value in the experiment on IκBα is reported as “prevents TNFα-induced IκBα degradation”. In addition, in the experiment on Mdm2, the “cellular Mdm2 level” value is reported as “increased”.
